Experiment [1] deals with KRAS G12C mutant MIA PaCa-2 pancreatic xenograft. In kind it is in vivo, mouse. The settings on record: monotherapy. The procedure: In Vivo Efficacy Experiments
Cultures are incubated at 37° C. and 5% CO2 in a humidified atmosphere, with medium change or subcultivation performed 2-3 times a week. For injection tumor cells are mixed with PBS including 5% FCS and Matrigel in a ratio of 1:1. 1×10EXP7 cells in a volume of 100 μL are injected subcutaneous in each mouse to establish tumors. […] The vehicle control, trametinib, 1-13 or the respective combination is administered intragastrically using a gavage needle at an application volume of 10 mL/kg in a volume of 10 mL/kg per mouse daily twice with a 6 h difference. Trametinib is dissolved in 0.5% DMSO and 0.5% Natrosol. Paclitaxel is formulated in 0.9% NaCl and is applied intravenously once a week at 10 mg/kg in a volume of 10 mL/kg. […]
Standardized irradiated diet (PROVIMI KLIBA) and autoclaved tap water are provided ad libitum. Microchips implanted subcutaneously under isoflurane anesthesia are used to identify each mouse. Cage cards showing the study number, the animal number, the compound and dose level, the administration route as well as the schedule remain with the animals throughout the study. The tumor diameter is measured two-three times a week with a caliper. The volume of each tumor [in mm^3] is calculated according to the formula “tumor volume=length*diameter2*π/6”. To monitor side effects of treatment, mice are inspected daily for abnormalities and body weight is determined daily. Animals are sacrificed at the end of the study. Animals with necrotic tumors or tumor sizes exceeding 1500 mm^3 are sacrificed early during the study for ethical reasons.
All compounds were applied twice daily per os (p.o.).

In experiment [2] the target is SOS1 and KRAS G12D (protein-protein interaction) (Homo sapiens, UniProt Q07889). In words: KRAS::SOS1 AlphaScreen binding assay. The settings on record: read-out: IC50 (SOS1). An outline of the steps: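 Compounds were tested in duplicate at 11 concentrations (1:5 serial from 100 μM, 1% DMSO). They were preincubated 30 min with final 10 nM KRAS G12D, 10 μM GDP and 5 nM GST-SOS1, then glutathione acceptor and streptavidin donor beads (10 μg/mL each) were added for 60 min at RT in the dark. AlphaScreen signal gave IC50 via 4-parameter logistic fit.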

In experiment [3] the test system is cleaved PARP in NCI-H358 (KRAS G12C) NSCLC cells. The experiment is classed as cell-based, human. The settings on record: NCI-H358, 3D, 10% serum; 1 μM I-13, 125 nM afatinib, alone or combined; 24 h, 48 h, 72 h.
For experiment [4], the system named is phosphorylation of MEK1/2 (Ser217/221) in MIA PaCa-2 cells (KRAS G12C). In words: MEK phosphorylation (Western blot) in MIA PaCa-2 cells. The settings on record: MIA PaCa-2, 2D; 25 nM trametinib alone or with 1 μM I-13; 2 h, 4 h, 8 h. In kind it is cell-based, human. The text has this:
ERK and MEK Phosphorylation to Investigate the Combinatorial Effect of SOS1 Inhibitors with MEK Inhibitors
ERK and MEK phosphorylation assays are also used to investigate combinatorial effects of SOS1 inhibitors with MEK inhibitors, e.g. in MIA PaCa-2 cells.
• 96-well Ultra low binding plates from Corning (CLS2474-24EA); • DMEM (Lonza BE12-604F); • Fetal Bovine Serum (FBS) from HyClone (SH30071.03); • Cell lysate buffer (CLB):10× (Cell Signaling, Cat #9803)
For lysis of the cells a 1.2 fold concentrated CLB is used including the following supplements: 120 μL Cell Lysis Buffer 10×(Cell Signaling, Cat #9803)+870 μL H2O is supplemented with 10 μL HALT Protease & Phosphatase Inhibitor Cocktail (Thermo Scientific, Prod #1861281)+1 μL PMSF Stock sol. (Sigma, Cat #P7626) […]
ImageQuant LAS 4000 is used to induce a Chemilumescence signal that is detected with an Amersham Hyperfilm MP (GE Healthcare, Cat #28906847). […] Band quantification is performed by using the software “Image Quant TL” from GE Health.
MIA PaCa-2 cells are seeded at 1.16×E6 cells per 6 well plate in 2 mL DMEM medium supplemented with 2% FCS in 6 well plates. […] The protein concentration of the cell lysate is quantified by Bradford protein assay according to the manufacturer's instructions. […]
. Cell lysate was generated at the respective timepoints and the effect on ERK or MEK phosphorylation was analysed using Western-blotting. […]
Background: Immunoblotting shows a protein as a band on a membrane.

Experiment [5] deals with phosphorylation of ERK1/2 (Thr202/Tyr204) in MIA PaCa-2 cells (KRAS G12C). The settings on record: MIA PaCa-2, 2D; 50 nM trametinib.
Description: Secondary Antibody (incubated 1 h at room temperature): Use a blocking buffer with a 1:1000 dilution of the anti-Rabbit IgG-HRP (Dako, Cat #P0448)
ECL Western Blotting Detection Reagents (GE Healthcare, Cat #RPN2106)
The film is developed with the device Protec Optimax. Band quantification is performed by using the software “Image Quant TL” from GE Health.
Cells are incubated over night at 37° C. with 5% CO2. The next day inhibitors are added with a HP D300 digital Dispenser. Following addition of the respective inhibitor the 6-well plate is incubated for 24 h, 48 h or 72 h, respectively. At the respective timepoint cells are lysed. […] Following this the lysate is centrifuged (16000 rpm, 4° C. for 15 minutes) and the supernatant is stored at −80° C. and used for subsequent steps. The protein concentration of the cell lysate is quantified by Bradford protein assay according to the manufacturer's instructions. […]
The mark [6] stands for this setting: values marked with * in the table.

Molecules are shown by their SMILES. Like-named read-outs stand apart in the source and are kept apart here.

In the case of `Nc1ccn([C@@H]2O[C@H](CO)[C@@H](O)C2(F)F)c(=O)n1` [gemcitabine], in experiment [1] (gemcitabine 50 mg/kg q4d i.p.), the inhibition of tumour growth (TGI) amounted to 4%.
On to `COc1cc2nc(C)nc(N[C@H](C)c3cc(N)cc(C(F)(F)F)c3)c2cc1-c1ccc(C(=O)N(C)CCO)nc1` [I-224], for which the 50% inhibitory concentration (IC50) in experiment [2] was 0.004 µM.
In the case of `Cc1nc(N[C@H](C)c2cc(N)cc(C(F)(F)F)c2F)c2cc(C3CCS(=O)(=O)CC3)ccc2n1` [I-310], the IC50 in experiment [2] worked out at 0.007 µM.
Still for that read-out and setting: the figure for `Cc1nc(N[C@H](C)c2cc(N)cc(C(F)(F)F)c2)c2cc([C@H]3CC[C@@H](C(=O)N(C)C)CC3)ccc2n1` [I-299] is 0.01 µM.
Same read-out and setting: the same measure for `COc1cc2nc(C)nc(N[C@H](C)c3cc(N)cc(C(F)(F)F)c3)c2cc1-c1ccc(=O)n(C(C)C)c1` [I-351]: 0.013 µM.
`Cc1cccc([C@@H](C)Nc2nc(C)nc3ccc(C4CCOCC4)cc23)c1` [I-154]: the IC50 in experiment [2] (assay buffer without EDTA (values not marked with an asterisk)) is 0.043 µM.
Regarding `CC(=O)N1CCC(c2cc(C)c3nc(C)nc(N[C@H](C)c4cccc(C)c4)c3c2)CC1` [I-269], the 50% inhibitory concentration (IC50) in experiment [2] came out at 0.024 µM.
In the case of `CN(C)C/C=C/C(=O)Nc1cc2c(Nc3ccc(F)c(Cl)c3)ncnc2cc1O[C@H]1CCOC1` [afatinib], the “apoptosis induction (levels of cleaved PARP)” value in experiment [3] is given as “needed 48 h to show apoptosis induction”.
Regarding `Cc1cccc([C@@H](C)Nc2nc(C)nc3ccc([C@H]4CC[C@H](C(=O)N5CC(C#N)C5)CC4)cc23)c1` [I-265], in experiment [2], the half-inhibitory concentration (IC50) worked out at 0.036 µM.
Regarding `Cc1nc(N[C@H](C)c2cc(N)cc(C(F)(F)F)c2)c2cc([C@H]3CC[C@H](C(=O)N4CCOCC4)CC3)ccc2n1` [I-234], the half-maximal inhibitory concentration (IC50) in experiment [2] amounted to 0.002 µM.
With `Cc1cccc([C@@H](C)Nc2nc(C)nc3ccc([C@H]4CC[S@](=N)(=O)CC4)cc23)c1` [I-332], in experiment [2] (setting [6]), the half-maximal inhibitory concentration (IC50) was determined as 0.018 µM.
Take `Cc1nc(N[C@H](C)c2cc(N)cc(C(F)(F)F)c2)c2cc(C3CCS(=O)(=O)CC3)ccc2n1` [I-322]: in experiment [2], the concentration for half-maximal inhibition (IC50) worked out at 0.003 µM.
The same measure, in the same setting: the same measure for `Cc1cccc([C@@H](C)Nc2nc(C)nc3ccc([C@H]4CC[C@H](C(=O)N(C)C)CC4)cc23)c1` [I-264]: 0.013 µM; for `COc1cc2nc(C)nc(N[C@H](C)c3cccc(C(F)(F)F)c3)c2cc1C1CCC(C(=O)N(C)CC(O)CO)CC1` (stereo partly shown) [I-227]: 0.027 µM.
Still for that read-out and setting: the same measure for `Cc1nc(N[C@H](C)c2cccc(C(F)(F)F)c2)c2cc([C@H]3CC[C@H](C(=O)N4CC(F)C4)CC3)ccc2n1` [I-231]: 0.019 µM.
For `CC(=O)O[C@H]1C(=O)[C@@]2(C)[C@H]([C@H](OC(=O)c3ccccc3)[C@]3(O)C[C@H](OC(=O)[C@H](O)[C@@H](NC(=O)c4ccccc4)c4ccccc4)C(C)=C1C3(C)C)[C@]1(OC(C)=O)CO[C@@H]1C[C@@H]2O` [paclitaxel], in experiment [1] (paclitaxel 10 mg/kg q7d i.v., day 22), the TGI amounted to 62%.
Regarding `CCN(C)C(=O)[C@H]1CC[C@@H](c2ccc3nc(C)nc(N[C@H](C)c4cc(N)cc(C(F)(F)F)c4)c3c2)CC1` [I-239], the IC50 in experiment [2] was 0.015 µM.
As for `Cc1cccc([C@@H](C)Nc2nc(C)nc3ccc(-c4ccc(=O)n(C)c4)cc23)c1` [I-103], in experiment [2] (setting [6]), the half-maximal inhibitory concentration (IC50) stood at 0.046 µM.
The same measure, in the same setting: the same measure for `Cc1nc(N[C@H](C)c2cccc(C(F)(F)F)c2)c2cc(-c3ccc(=O)n(CC(=O)N(C)C)c3)ccc2n1` [I-333]: 0.026 µM.
`Cc1cccc([C@@H](C)Nc2nc(C)nc3ccc([C@H]4CC[C@H](O)CC4)cc23)c1` [I-64]: the half-inhibitory concentration (IC50) in experiment [2] (assay buffer with 100 μM EDTA (values marked with an asterisk)) is 0.034 µM.
Take `COc1cc2nc(C)nc(N[C@H](C)c3cc(N)cc(C(F)(F)F)c3F)c2cc1[C@H]1CC[C@H](C(=O)N(C)C)CC1` [I-244]: the 50% inhibitory concentration (IC50) in experiment [2] came out at 0.002 µM.
Still for that read-out and setting: the figure for `COc1cc(-c2cc3c(N[C@H](C)c4cccc(C(F)(F)F)c4)nc(C)nc3cc2OC)ccc1C(=O)N(C)C` [I-217] is 0.043 µM.
On to `CC(=O)Nc1cccc(-n2c(=O)n(C3CC3)c(=O)c3c(Nc4ccc(I)cc4F)n(C)c(=O)c(C)c32)c1` [trametinib], for which the “levels of phosphorylated MEK1/2 (Ser 217/221)” value in experiment [4] is given as “increased levels of MEK1/2 (Ser 217/221)”. Besides, the results for the inhibition of tumour growth (TGI) in experiment [1] (trametinib 0.05 mg/kg twice daily p.o.) and in experiment [1] (trametinib 0.125 mg/kg twice daily p.o.) were 50% and 73%, respectively. Moreover, the tumor regressions result in experiment [1] (trametinib 0.125 mg/kg or 0.05 mg/kg twice daily p.o.) is on record as “no regressions in any tumors”. Also, the “reduction of ERK1/2 (Thr 202/Tyr 204) phosphorylation levels compared to untreated control cells” value in experiment [5] is listed as 65-75%.
Take `Cc1nc(N[C@H](C)c2cc(N)cc(C(F)(F)F)c2)c2cc(-c3ccc(=O)n(C)c3)c(C)cc2n1` [I-107]: the IC50 in experiment [2] (setting [6]) was determined as 0.004 µM.

As usually defined, the TGI is how far tumour growth fell short of that in controls. The IC50 is the concentration needed to halve the response being measured.

The values are drawn from US12053473B2, “Benzylamino substituted quinazolines and derivatives as SOS1 inhibitors” (priority 2016, dated 2024).
